Reference: patent US12570612B2, “Substituted nitrogen heterocyclic compound and anesthetic effect thereof” (priority 2019, dated 2026)
Entries after “also recorded” stand apart in the source; their conditions may differ.

Legend:
Sprague-Dawley rats [1] = assay: animal or person; settings: for ED50: Rattus norvegicus; for Approximate therapeutic index / Minimal lethal dose: rats
Experimental: (§1) Adult male Sprague-Dawley rats (250-300 g) were selected for the experiment. […] The anesthesia effects of the compounds were assessed in rats using a LORR assay and a period >30 s was considered as an indicator of general anesthesia.

Sprague-Dawley rats [2] = assay: Pharmacological characteristics at equivalent doses (2ED50), Group A compounds; format: in vivo; settings: 2ED50, tail vein; for Types and incidence of adverse reactions: (animals affected/animals)
H295R cell line [3] = assay: Adrenocortical function in vitro test: secretion of cortisol and corticosterone, Group A compounds; format: cell-based; settings: H295 cells; for EC50: Homo sapiens, 0.1-10000 nM, HPLC-MS/MS
Sprague-Dawley rats [4] = assay: animal or person; settings: for ED50: LORR in rats, tail vein, brackets = 95% confidence limit; for Approximate therapeutic index / Minimal lethal dose: rats
Experimental: as §1

H295R cell line [5] = assay: Adrenocortical function in vitro test: secretion of cortisol and corticosterone, Group B compounds; format: cell-based; settings: H295R cells; for EC50: 0.1-10000 nM, HPLC-MS/MS
[6] = read-out: EC50 (Corticosterone)
[7] = Homo sapiens, NCI-H295R, read-out: EC50 (Corticosterone)
[8] = Homo sapiens, NCI-H295R, read-out: EC50 (Cortisol)

| Structure (SMILES) | ED50 (Sprague-Dawley rats [1]) | Approximate therapeutic index (Sprague-Dawley rats [1]) | Minimal lethal dose (Sprague-Dawley rats [1]) | Onset time (Sprague-Dawley rats [2]) | Righting reflex duration (Sprague-Dawley rats [2]) | Types and incidence of adverse reactions (Sprague-Dawley rats [2]) | Corticosterone as an indicator to determine the presence of inhibition (H295R cell line [3]) | Cortisol as an indicator to determine the presence of inhibition (H295R cell line [3]) | EC50 (H295R cell line [3]; [6]) | EC50 (H295R cell line [3]; read-out: EC50 (Cortisol)) | ED50 (Sprague-Dawley rats [4]; Rattus norvegicus) | Approximate therapeutic index (Sprague-Dawley rats [4]) | Minimal lethal dose (Sprague-Dawley rats [4]) | Corticosterone as an indicator to determine the presence of inhibition (H295R cell line [5]) | Cortisol as an indicator to determine the presence of inhibition (H295R cell line [5]) | EC50 (H295R cell line [5]; [7]) | EC50 (H295R cell line [5]; [8]) | ED50 (Sprague-Dawley rats [4]) | EC50 (H295R cell line [5]; [6]) | EC50 (H295R cell line [5]; read-out: EC50 (Cortisol)) |
| --- | --- | --- | --- | --- | --- | --- | --- | --- | --- | --- | --- | --- | --- | --- | --- | --- | --- | --- | --- | --- |
| CCOC(=O)c1cc(F)nn1[C@H](C)c1ccccc1 [Compound A49] | 2 to 6 mg/kg | >2 | >9 mg/kg | 0.28 ± 0.04 min | 2.69 ± 1.18 min | Red urine(8/8), Hindlimb; also recorded: rigidity (2/8), broken-; also recorded: winded(1/8), Tremor(3/8) | 0 | 0 | > 100 nM | > 100 nM | – | – | – | – | – | – | – | – | – | – |
| C=C=CC1(OC(=O)c2c(F)cnn2[C@H](C)c2ccccc2)COC1 [Compound A73] | 0.04 to 0.5 mg/kg | >25 | >2 mg/kg | 0.42 ± 0.07 min | 1.21 ± 0.45 min | Red and urine(8/8), Tremor(3/8), and Facial muscle and twitching(2/8), Euphoria and (1/8), Nod(1/8) | 0 | 0 | > 1000 nM | > 1000 nM | – | – | – | – | – | – | – | – | – | – |
| C=C=CC1(OC(=O)c2c(Cl)cnn2[C@H](C)c2ccccc2)COC1 [Compound A108] | 2 to 6 mg/kg | >5 | >15 mg/kg | 0.26 ± 0.20 min | 3.29 ± 1.20 min | Red urine(8/8), Hindlimb; also recorded: rigidity (7/8), the four; also recorded: limbs Tremor(3/8) | 0 | 0 | > 100 nM | > 100 nM | – | – | – | – | – | – | – | – | – | – |
| CC#CCOC(=O)c1ccnn1[C@H](C)c1ccccc1 [Compound A23] | 2 to 6 mg/kg | >5 | >11 mg/kg | 0.48 ± 0.14 min | 2.28 ± 1.83 min | Red and urine(8/8), Euphoria(6/8), and Hindlimb rigidity and (2/8), Tremor(1/8), and Convulsions(1/8) | 0 | 0 | > 100 nM | > 100 nM | – | – | – | – | – | – | – | – | – | – |
| CC(=O)C1(OC(=O)c2ccnn2[C@H](C)c2ccccc2)COC1 [Compound A8] | 1 to 2 mg/kg | >7 | >9 mg/kg | 0.57 ± 0.20 min | 2.70 ± 2.52 min | Red urine(8/8),; also recorded: Tremor(2/8),; also recorded: Euphoria(1/8) | 0 | 0 | > 1000 nM | > 1000 nM | – | – | – | – | – | – | – | – | – | – |
| CC(C)OC(=O)c1cnnn1[C@H](C)c1ccccc1 [Compound B17] | – | – | – | – | – | – | – | – | – | – | 0.04 to 0.5 mg/kg | >56 | >16 mg/kg | 0 | 0 | > 1000 nM | > 1000 nM | – | – | – |
| C=C=CC1(OC(=O)c2c(I)nnn2[C@H](C)c2ccccc2)CCCCC1 [Compound B137] | – | – | – | – | – | – | – | – | – | – | 1 to 2 mg/kg | >9 | >12 mg/kg | 0 | 0 | > 1000 nM | > 1000 nM | – | – | – |
| CC(C)O[C@H]1C[C@@H](OC(=O)c2cnnn2[C@H](C)c2ccccc2)C1 [Compound B26] | – | – | – | – | – | – | – | – | – | – | 1 to 2 mg/kg | >10 | >12 mg/kg | 0 | 0 | > 100 nM | > 100 nM | – | – | – |
| C[C@H](c1ccccc1)n1nnc(I)c1C(=O)OCC1CC1 [Compound B133] | – | – | – | – | – | – | – | – | – | – | 0.5 to 1 mg/kg | >20 | >14 mg/kg | 0 | 0 | > 1000 nM | > 1000 nM | – | – | – |
| C=CC(CC)OC(=O)c1cnnn1[C@H](C)c1ccccc1 (some centres unmarked) [Compound B13] | – | – | – | – | – | – | – | – | – | – | 0.5 to 1 mg/kg | >2 | >1 mg/kg | 0 | 0 | > 1000 nM | > 1000 nM | – | – | – |
| C=CC1(OC(=O)c2c(F)nnn2[C@H](C)c2ccccc2)COC1 [Compound B51] | – | – | – | – | – | – | – | – | – | – | 1 to 2 mg/kg | >12 | >14 mg/kg | 0 | 0 | > 1000 nM | > 1000 nM | – | – | – |
| CC=CC1(OC(=O)c2cnnn2C(C)c2ccccc2)COC1 (mixture of isomers) [Compound B21] | – | – | – | – | – | – | – | – | – | – | – | >11 | >8 mg/kg | 0 | 0 | – | – | B (B indicates that the measured ED50 is in the range of 0.50-1.00 mg/kg (excluding 0.50 mg/kg, including 1.00 mg/kg)) | > 100 nM | > 100 nM |
| CO[C@H]1C[C@@H](OC(=O)c2cnnn2[C@H](C)c2ccccc2)C1 [Compound B8] | – | – | – | – | – | – | – | – | – | – | 0.5 to 1 mg/kg | >9 | >8 mg/kg | 0 | 0 | > 1000 nM | > 1000 nM | – | – | – |
| CO[C@H]1C[C@@H](OC(=O)c2c(F)nnn2[C@H](C)c2ccccc2)C1 [Compound B40] | – | – | – | – | – | – | – | – | – | – | 0.5 to 1 mg/kg | >6 | >6 mg/kg | 0 | 0 | > 100 nM | > 100 nM | – | – | – |
| CCSC(=O)c1c(Br)nnn1[C@H](C)c1ccccc1 [Compound B120] | – | – | – | – | – | – | – | – | – | – | 0.5 to 1 mg/kg | >21 | >15 mg/kg | 0 | 0 | > 1000 nM | > 1000 nM | – | – | – |
| CCOC(=O)c1nnn([C@H](C)c2ccccc2)c1C(F)(F)F [Compound B146] | – | – | – | – | – | – | – | – | – | – | – | >8 | >14 mg/kg | 0 | 0 | – | – | C (C indicates that the measured ED50 is in the range of 1.00-2.00 mg/kg (excluding 1.00 mg/kg, including 2.00 mg/kg)) | > 3000 nM | > 3000 nM |
| C[C@H](c1ccccc1)n1nnc(Br)c1C(=O)OC1CCC1 [Compound B104] | – | – | – | – | – | – | – | – | – | – | – | >10 | >11 mg/kg | 0 | 0 | – | – | C (C indicates that the measured ED50 is in the range of 1.00-2.00 mg/kg (excluding 1.00 mg/kg, including 2.00 mg/kg)) | > 3000 nM | > 3000 nM |
